Experimental data from patent US10799499B2, “Combinatorial therapies of neurological disorders” (PHARNEXT, priority 2016, dated 2020).

Legend:
[1] = system: primary cortical neuron cells; experiment: Toxicity of human Aβ1-42 peptide on primary cortical neuron cells (MAP2 antibody labelling); format: cell-based, rat; details: combinations versus drugs used alone at the same doses
Experimental: Effect on the Toxicity of Human Aβ1-42 Peptide on Primary Cortical Neuron Cells.
Culture of Primary Cortical Neurons
Rat cortical neurons are cultured as described by Singer et al.. Briefly pregnant female rats of 15 days gestation were killed by cervical dislocation (Rats Wistar) and the foetuses were removed from the uterus. The cortex was removed and placed in ice-cold medium of Leibovitz (L15) containing 2% of Penicillin 10.000 U/ml and Streptomycin 10 mg/ml and 1% of bovine serum albumin (BSA). Cortices were dissociated by trypsin for 20 min at 37° C. (0.05%). The reaction was stopped by the addition of Dulbecco's modified Eagle's medium (DMEM) containing DNase 1 grade II and 10% of fetal calf serum (FCS). Cells were then mechanically dissociated by 3 serial passages through a 10 ml pipette and centrifuged at 515×g for […] at +4° C. The supernatant was discarded and the pellet of cells was re-suspended in a defined culture medium consisting of Neurobasal supplemented with B27 (2%), L-glutamine (0.2 mM), 2% of PS solution and 10 ng/ml of BDNF. Viable cells are counted in a Neubauer cytometer using the trypan blue exclusion test. The cells are seeded at a density of 30 000 cells/well in 96 well-plates (wells were pre-coated with poly-L-lysine (10 μg/ml)) and are cultured at +37° C. in a humidified air (95%)/CO2 (5%) atmosphere.
Three independent cultures are performed per condition, 6 wells per condition.
Test compounds and Human Amyloid-β1-42 Treatment
Briefly, Aβ1-42 peptide is reconstituted in define culture medium at 40 μM (mother solution) and was slowly shaken at +37° C. for 3 days in dark. The control medium is prepared in the same conditions.
After 3 days, the solution is used on primary cortical neurons as follows.
After 10 days of neuron culture, test compounds and combinations thereof are solved in culture medium (+0.1% DMSO) and then pre-incubated with neurons for one hour before the Aβ1_42 application (in a final volume per culture well of 100 μl). One hour after test compound(s) incubation, 100 μl of Aβ1-42 peptide is added to a final concentration of 10 μM diluted in presence of drug(s), in order to avoid further test compound(s) dilutions. Cortical neurons are intoxicated for 24 h. Three separate cultures are performed per condition, 6 wells per condition.
BDNF (50 ng/ml) is used as positive control. Three separate cultures are performed per condition, 12 wells per condition.
MAP2 Antibody Labelling Assay
24 hours after intoxication, the cell culture supernatant is taken off and the cortical neurons are fixed by a cold solution of ethanol (95%) and acetic acid (5%) for 5 min at −20° C. After permeabilization with 0.1% of saponin, cells are incubated for 2 h with mouse monoclonal antibody anti microtubule-associated-protein 2 (MAP-2; Sigma) at dilution of 1/400 in PBS containing 1% fetal calf serum and 0.1% of saponin (this antibody stains specifically cell bodies and neurites, allowing study of both the neurite network and cell death). […] For each condition, 30 pictures per well are taken using InCell Analyzer™ 1000 (GE Healthcare) with 20× magnification. All images are taken with the same conditions. Analysis of total neurite network and number of neurons is performed automatically by using Developer software (GE Healthcare).
Data are expressed in percentage of control conditions (no intoxication, no amyloid=100%) in order to express the amyloid injury. All values are expressed as mean+/−SEM (s.e.mean) of the 3 cultures (n=6 wells per condition). Statistical analyses are done on the different conditions (one-way ANOVA followed by the Dunnett's test when it is allowed, Statview software version 5.0).

Male Swiss mice [2] = experiment: Step-through passive avoidance test (contextual long-term memory) in mice injected ICV with Aβ25-35; format: in vivo, mouse; details: oral gavage Day 0 to Day 10, quinoline 1 mg/Kg once a day, baclofen 480 μg/Kg and acamprosate 32 μg/Kg twice a day, retention at Day 10
Experimental: (§1) The peptide amyloid-β25-35 (Aβ25-35) is the hydrophobic part of the full-length amyloid peptide. Injection of this peptide in the brain ventricles of rodents is known to induce a progressive neurodegenerative processes resulting in cognitive impairments. This model is commonly used for diseases involving cognitive impairment symptoms.
(§2) Male Swiss mice were administered from Day 0 to Day 10 with sham product (group 1 and 2); 3-phenylsulfonyl-8-(piperazin-1-yl) quinoline (group 3); baclofen and acamprosate (group 4); or 3-phenylsulfonyl-8-(piperazin-1-yl) quinoline, baclofen and acamprosate (group 5).
(§3) 3-phenylsulfonyl-8-(piperazin-1-yl) quinoline) was administered orally by gavage once a day (1 mg/Kg of the individual body weight of each mouse.
(§4) A composition of baclofen and acamprosate was administered orally by gavage twice a day (respectively 480 μg/Kg and 32 μg/Kg of the individual body weight of each mouse).
(§5) At Day 1, oligomeric Aβ25-35 peptide was injected ICV (intracerebroventricular) to provoke amyloid toxicity (group 2, 3, 4 and 5). […]
All animals were tested for passive avoidance performance, an index of contextual long-term memory. […] The step-through latency, that is, the latency spent to enter the darkened compartment, and the number of vocalizations were recorded. […] The step-through latency was recorded up to 300 s.

Male Swiss mice [3] = experiment: Spontaneous alternation in the Y-maze (spatial working memory) in mice injected ICV with Aβ25-35; format: in vivo, mouse; details: oral gavage Day 0 to Day 10, quinoline 1 mg/Kg once a day, baclofen 480 μg/Kg and acamprosate 32 μg/Kg twice a day, test at Day 8
Experimental: as §1, §2, §3, §4, §5
Animals were tested for spontaneous alternation performance in the Y-maze, an index of spatial working memory. […] The number of maximum alternations was therefore the total number of arm entries minus two and the percentage of alternation was calculated as (actual alternations/maximum alternations)×100. […]

Structure (SMILES) | protective effect on neuronal cells against Aβ1-42 toxicity [1] | effect on the impairment of cognitive function induced by Aβ(25-35), step-through passive avoidance (Male Swiss mice [2]) | effect on the impairment of cognitive function induced by Aβ(25-35), Y-maze (Male Swiss mice [3])
CC12CC3CC(C)(C1)CC(N)(C3)C2 [memantine] | no or a marginal protective effect |  | 
NCC(CC(=O)O)c1ccc(Cl)cc1 (centres unmarked) [baclofen] | no or a marginal protective effect |  | 
O=S(=O)(c1ccccc1)c1cnc2c(N3CCNCC3)cccc2c1 [3-phenylsulfonyl-8-(piperazin-1-yl) quinoline] | no or a marginal protective effect | did not show any significant effect | did not show any significant effect
Nc1c2c(nc3ccccc13)CCCC2 [tacrine] | no or a marginal protective effect |  | 
CCN(C)C(=O)Oc1cccc([C@H](C)N(C)C)c1 [rivastigmine] | no or a marginal protective effect |  | 
CC(=O)NCCCS(=O)(=O)O [acamprosate] | no or a marginal protective effect |  | 
